Data reported in US12376590B2, “Compositions comprising pyridine carboxylate herbicides and azole carboxylate safeners” (Corteva Agriscience LLC, priority 2018, dated 2025).
“And” between values parts separate entries of the source, which are not always exact repeats. Identical values can stand only once.

How the values were obtained:
Test in all cases: Greenhouse postemergence herbicidal safening trial, visual injury after 20-22 d
Canada thistle (CIRAR) = assay type: in vivo, Cirsium arvense
Description: (§1) Greenhouse Trial Methodology—Evaluation of Postemergence Herbicidal Safening in Crops
(§2) Seeds of the desired test plant species were planted in a 90:10% v/v (volume/volume) mixture of PRO-MIX® BX (Premier Tech Horticulture, Quakertown, PA, USA) and PROFILE® GREENS GRADE™ (Profile Products LLC, Buffalo Grove, IL, USA) planting mixture, which typically has a pH of 5.2 to 6.2 and an organic matter content of at least 50 percent, in plastic pots with a surface area of 103.2 square centimeters (cm^2). When required to ensure good germination and healthy plants, a fungicide treatment and/or other chemical or physical treatment was applied. The plants were grown for 7-36 days (d) in a greenhouse with an approximate 14-hour (h) photo-period which was maintained at about 23° C. during the day and 22° C. during the night. Nutrients and water were added on a regular basis and supplemental lighting was provided with overhead metal halide 1000-Watt lamps as necessary. The plants were employed for testing when they reached the second or third true leaf stage.
(§3) Emulsifiable concentrates of each of each pyridine carboxylate herbicide (Compound A or Compound B) were prepared at 100 grams acid equivalent per liter (g ae/L). An aliquot of each emulsifiable concentrate was placed in a 25 mL glass vial and diluted with an aqueous mixture of 1.25% (v/v) ACTIROB® B esterified rapeseed oil (Bayer Crop Science, Research Triangle Park, NC, USA) or MSO® Concentrate with LECI-TECH® methylated soybean oil (Loveland Products, Loveland, CO, USA) to obtain concentrated stock solutions at the highest application rate for each herbicide, based upon a 12 milliliter (mL) application volume at a rate of 187 liters per hectare (L/ha). The concentrated stock solutions were further diluted with an aqueous mixture of 1.25% v/v ACTIROB® B or MSO® Concentrate with LECI-TECH® to obtain stock solutions at reduced application rates for each herbicide. Spray solutions of the herbicide combinations (Compound A or Compound B plus safener) were prepared by adding weighed amounts or aliquots of the azole carboxylate safener to the stock solutions of Compound A or Compound B to form 12-mL spray solutions in two-way combinations.
(§4) The spray solutions were applied to the plant material with an overhead Mandel track sprayer equipped with 8002E nozzles calibrated to deliver 187 L/ha over an application area of 0.503 square meters (m^2) at a spray height of 18 inches (43 centimeters (cm)) above the average plant canopy. Control plants were sprayed in the same manner with the solvent blank. All herbicide (component a) application rates are given as “g ae/ha” and all safener (component b) application rates are given as “g ai/ha.”
(§5) The treated plants and control plants were placed in a greenhouse as described above and watered by sub-irrigation to prevent wash-off of the test compounds. After 20-22 d, the condition of the test plants as compared with that of the control plants was determined visually and scored on a scale of 0 to 100 percent where 0 corresponds to no injury and 100 corresponds to complete kill.

maize (ZEAMX) = assay type: in vivo, Zea mays
Description: as §1, §2, §3, §4, §5

giant foxtail (SETFA) = assay type: in vivo, Setaria faberi
Description: as §1, §2, §3, §4, §5

Russian thistle (SASKR) = assay type: in vivo, Salsola kali; settings: applied alone, 20 g/ha
Description: as §1, §2, §3, §4, §5

common rice (ORYSA) = assay type: in vivo, Oryza sativa
Description: as §1, §2, §3, §4, §5

Italian ryegrass (LOLMU) = assay type: in vivo, Lolium multiflorum
Description: as §1, §2, §3, §4, §5

[1] = test system: herbicide-resistant kochia (KCHSC-R); assay type: in vivo, Kochia scoparia
Description: as §1, §2, §3, §4, §5

kochia (KCHSC) = assay type: in vivo, Kochia scoparia
Description: as §1, §2, §3, §4, §5

wild chamomile (MATCH) = assay type: in vivo, Matricaria chamomilla; settings: applied alone, 20 g/ha
Description: as §1, §2, §3, §4, §5

[2] = test system: Chinese sprangletop (LEFCH); assay type: in vivo, Leptochloa chinensis
Description: as §1, §2, §3, §4, §5

wild oat (AVEFA) = assay type: in vivo, Avena fatua
Description: as §1, §2, §3, §4, §5

[3] = test system: ivyleaf morningglory (IPOHE); assay type: in vivo, Ipomoea hederacea
Description: as §1, §2, §3, §4, §5

barnyardgrass (ECHCG) = assay type: in vivo, Echinochloa crus-galli
Description: as §1, §2, §3, §4, §5

[4] = test system: common lambsquarters (CHEAL); assay type: in vivo, Chenopodium album L.
Description: as §1, §2, §3, §4, §5

Canada horseweed (ERICA) = assay type: in vivo, Erigeron canadensis
Description: as §1, §2, §3, §4, §5

wild buckwheat (POLCO) = assay type: in vivo, Polygonum convolvulus
Description: as §1, §2, §3, §4, §5

large crabgrass (DIGSA) = assay type: in vivo, Digitaria sanguinalis
Description: as §1, §2, §3, §4, §5

winter rape (BRSNW) = assay type: in vivo, Brassica napus
Description: as §1, §2, §3, §4, §5

pigweed (AMARE) = assay type: in vivo, Amaranthus retroflexus
Description: as §1, §2, §3, §4, §5

common sunflower (HELAN) = assay type: in vivo, Helianthus annuus
Description: as §1, §2, §3, §4, §5

spring barley (HORVS) = assay type: in vivo, Hordeum vulgare; settings: applied alone
Description: as §1, §2, §3, §4, §5

Johnson grass (SORHA) = assay type: in vivo, Sorghum halepense
Description: as §1, §2, §3, §4, §5

winter wheat (TRZAW) = assay type: in vivo, Triticum aestivum
Description: as §1, §2, §3, §4, §5

spring wheat (TRZAS) = assay type: in vivo, Triticum aestivum; settings: applied alone
Description: as §1, §2, §3, §4, §5

nutsedge (CYPES) = assay type: in vivo, Cyperus esculentus
Description: as §1, §2, §3, §4, §5

soybean (GLXMA) = assay type: in vivo, Glycine max
Description: as §1, §2, §3, §4, §5

wild pansy (VIOTR) = assay type: in vivo, Viola tricolor
Description: as §1, §2, §3, §4, §5

blackgrass (ALOMY) = assay type: in vivo, Alopecurus myosuroides
Description: as §1, §2, §3, §4, §5

velvetleaf (ABUTH) = assay type: in vivo, Abutilon theophrasti
Description: as §1, §2, §3, §4, §5

N#CCOC(=O)c1nc(-c2ccc3cc[nH]c3c2F)c(F)c(N)c1Cl [Compound A, cyanomethyl 4-amino-3-chloro-5-fluoro-6-(7-fluoro-1H-indol-6-yl)pyridine-2-carboxylate]
% visual injury Ob (Canada thistle (CIRAR); Compound A 20 g/ha): 95% | % visual injury Ob (Canada thistle (CIRAR); applied alone, 20 g/ha): 95% | % visual injury Ob (maize (ZEAMX); Compound A 20 g/ha): 13% | % visual injury Ob (maize (ZEAMX); applied alone, 20 g/ha): 13% | % visual injury Ob (maize (ZEAMX); applied alone, 40 g/ha): 55% | % visual injury Ob (giant foxtail (SETFA); Compound A 20 g/ha): 65% | % visual injury Ob (giant foxtail (SETFA); applied alone, 20 g/ha): 65% | % visual injury Ob (Russian thistle (SASKR)): 60% | % visual injury Ob (common rice (ORYSA); Compound A 20 g/ha): 10% | % visual injury Ob (common rice (ORYSA); applied alone, 20 g/ha): 10% | % visual injury Ob (Italian ryegrass (LOLMU); Compound A 20 g/ha): 5% | % visual injury Ob (Italian ryegrass (LOLMU); applied alone, 20 g/ha): 5% | % visual injury Ob ([1]; Compound A 20 g/ha): 90% | % visual injury Ob ([1]; applied alone, 20 g/ha): 90% | % visual injury Ob (kochia (KCHSC); Compound A 20 g/ha): 97% | % visual injury Ob (kochia (KCHSC); applied alone, 20 g/ha): 97% | % visual injury Ob (wild chamomile (MATCH)): 50% | % visual injury Ob ([2]; Compound A 20 g/ha): 60% | % visual injury Ob ([2]; applied alone, 20 g/ha): 60% | % visual injury Ob (wild oat (AVEFA); Compound A 20 g/ha): 0% | % visual injury Ob (wild oat (AVEFA); applied alone, 20 g/ha): 0% | % visual injury Ob ([3]; Compound A 20 g/ha): 0% | % visual injury Ob ([3]; applied alone, 20 g/ha): 0% | % visual injury Ob (barnyardgrass (ECHCG); Compound A 20 g/ha): 85% | % visual injury Ob (barnyardgrass (ECHCG); applied alone, 20 g/ha): 85% | % visual injury Ob ([4]; Compound A 20 g/ha): 88% | % visual injury Ob ([4]; applied alone, 20 g/ha): 88% | % visual injury Ob (Canada horseweed (ERICA); Compound A 20 g/ha): 95% | % visual injury Ob (Canada horseweed (ERICA); applied alone, 20 g/ha): 95% | % visual injury Ob (wild buckwheat (POLCO); Compound A 20 g/ha): 100% | % visual injury Ob (wild buckwheat (POLCO); applied alone, 20 g/ha): 100% | % visual injury Ob (large crabgrass (DIGSA); Compound A 20 g/ha): 30% | % visual injury Ob (large crabgrass (DIGSA); applied alone, 20 g/ha): 30% | % visual injury Ob (winter rape (BRSNW); Compound A 20 g/ha): 85% | % visual injury Ob (winter rape (BRSNW); applied alone, 20 g/ha): 95% and 85% | % visual injury Ob (pigweed (AMARE); Compound A 20 g/ha): 93% | % visual injury Ob (pigweed (AMARE); applied alone, 20 g/ha): 93% | % visual injury Ob (pigweed (AMARE); applied alone, 40 g/ha): 100% | % visual injury Ob (common sunflower (HELAN); Compound A 20 g/ha): 95% | % visual injury Ob (common sunflower (HELAN); applied alone, 20 g/ha): 95% | % visual injury Ob (common sunflower (HELAN); applied alone, 40 g/ha): 100% | % visual injury Ob (spring barley (HORVS); 20 g/ha): 0% | % visual injury Ob (spring barley (HORVS); 40 g/ha): 17% | % visual injury Ob (Johnson grass (SORHA); Compound A 20 g/ha): 0% | % visual injury Ob (Johnson grass (SORHA); applied alone, 20 g/ha): 0% | % visual injury Ob (winter wheat (TRZAW); Compound A 20 g/ha): 25% | % visual injury Ob (winter wheat (TRZAW); applied alone, 20 g/ha): 25% | % visual injury Ob (winter wheat (TRZAW); applied alone, 40 g/ha): 25% | % visual injury Ob (spring wheat (TRZAS); 20 g/ha): 25% | % visual injury Ob (spring wheat (TRZAS); 40 g/ha): 23% and 30% | % visual injury Ob (nutsedge (CYPES); Compound A 20 g/ha): 30% | % visual injury Ob (nutsedge (CYPES); applied alone, 20 g/ha): 30% | % visual injury Ob (nutsedge (CYPES); applied alone, 40 g/ha): 73% | % visual injury Ob (soybean (GLXMA); Compound A 20 g/ha): 100% | % visual injury Ob (soybean (GLXMA); applied alone, 20 g/ha): 100% | % visual injury Ob (wild pansy (VIOTR); Compound A 20 g/ha): 30% | % visual injury Ob (wild pansy (VIOTR); applied alone, 20 g/ha): 30% | % visual injury Ob (blackgrass (ALOMY); Compound A 20 g/ha): 0% | % visual injury Ob (blackgrass (ALOMY); applied alone, 20 g/ha): 0% | % visual injury Ob (velvetleaf (ABUTH); Compound A 20 g/ha): 95% | % visual injury Ob (velvetleaf (ABUTH); applied alone, 20 g/ha): 95%
